Results as given in patent US20250281424A1 (New York Blood Center, Inc, priority 2020, published 2025).

Biological target: T1, human PF4 (Homo sapiens, UniProt P02776)
T1 construct: PF4 is a 70 amino acid, lysine-rich 7.8 kDa platelet-specific protein; made in house; host or cells: Escherichia coli BL21DE3 pLysS (pT7-7) and/or Drosophila S2 cells
T1 sequence (P02776 32-101): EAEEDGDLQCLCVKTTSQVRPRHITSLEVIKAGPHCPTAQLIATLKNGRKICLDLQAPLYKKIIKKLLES
Test: Inhibition of PF4 tetramer formation (BS3 cross-linking, SDS-PAGE)
Assay type: biochemical
Details: for inhibition at 1 µM: 1 μM inhibitor; for inhibition at 1 µM / inhibition at 3 µM: read-out: % inhibition of PF4 tetramer formation at single concentration of inhibitor; for inhibition at 3 µM: 3 μM inhibitor (column A); for IC50: read-out: IC50 of PF4 tetramer formation inhibition
Procedure, shortened: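 Recombinant human wild-type PF4 (E. coli-expressed, heparin-purified), 10 μg/ml in PBS, incubated with compound 15 min at 37° C or 60 min at room temperature, then cross-linked with 0.2 mM BS3 for 30 min at room temperature. Reducing 12% SDS-PAGE; bands quantified as % tetramer, trimer, dimer, monomer versus compound-free control.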

| inhibition at 1 µM | inhibition at 3 µM | IC50 | SMILES |
| --- | --- | --- | --- |
| 18% | 39% | – | O=C1c2ccc(S(=O)(=O)c3ccc4c(c3)C(=O)C(C(=O)[C@H]3CCCN3)C4=O)cc2C(=O)C1C(=O)[C@@H]1CCNC1 (stereo partly drawn) [Example 350, 5-({1,3-dioxo-2-[(3R)-pyrrolidine-3-carbonyl]-2,3-dihydro-1H-inden-5-yl}sulfonyl)-2-[(2R)-pyrrolidine-2-carbonyl]-2,3-dihydro-1H-indene-1,3-dione] |
| 12% | 21% | – | CC(C)[C@@H](N)C(=O)C1C(=O)c2ccc(Oc3ccc4c(c3)C(=O)C(C(=O)[C@H](N)C(C)C)C4=O)cc2C1=O (stereo partly drawn) [Example 351, 2-[(2R)-2-amino-3-methylbutanoyl]-5-({2-[(2R)-2-amino-3-methylbutanoyl]-1,3-dioxo-2,3-dihydro-1H-inden-5-yl}oxy)-2,3-dihydro-1H-indene-1,3-dione] |
| 35% | 78% | – | CC(C)[C@@H](N)C(=O)C1C(=O)c2ccc(C(=O)c3ccc4c(c3)C(=O)C(C(=O)[C@H](N)C(C)C)C4=O)cc2C1=O (stereo partly drawn) [Example 352, 2-[(2R)-2-amino-3-methylbutanoyl]-5-{2-[(2R)-2-amino-3-methylbutanoyl]-1,3-dioxo-2,3-dihydro-1H-indene-5-carbonyl}-2,3-dihydro-1H-indene-1,3-dione] |
| 22% | 37% | – | CC(C)[C@@H](N)C(=O)C1C(=O)c2ccc(S(=O)(=O)c3ccc4c(c3)C(=O)C(C(=O)[C@H](N)C(C)C)C4=O)cc2C1=O (stereo partly drawn) [Example 353, 2-[(2R)-2-amino-3-methylbutanoyl]-5-({2-[(2R)-2-amino-3-methylbutanoyl]-1,3-dioxo-2,3-dihydro-1H-inden-5-yl}sulfonyl)-2,3-dihydro-1H-indene-1,3-dione] |
| 26% | 32% | – | CC(C)C[C@@H](N)C(=O)C1C(=O)c2ccc(C(=O)c3ccc4c(c3)C(=O)C(C(=O)[C@H](N)CC(C)C)C4=O)cc2C1=O (stereo partly drawn) [Example 354, 2-[(2R)-2-amino-4-methylpentanoyl]-5-{2-[(2R)-2-amino-4-methylpentanoyl]-1,3-dioxo-2,3-dihydro-1H-indene-5-carbonyl}-2,3-dihydro-1H-indene-1,3-dione] |
| 23% | 61% | – | CC(C)C[C@@H](N)C(=O)C1C(=O)c2ccc(S(=O)(=O)c3ccc4c(c3)C(=O)C(C(=O)[C@H](N)CC(C)C)C4=O)cc2C1=O (stereo partly drawn) [Example 355, 2-[(2R)-2-amino-4-methylpentanoyl]-5-({2-[(2R)-2-amino-4-methylpentanoyl]-1,3-dioxo-2,3-dihydro-1H-inden-5-yl}sulfonyl)-2,3-dihydro-1H-indene-1,3-dione] |
| 18% | 55% | – | O=C1c2ccc(Oc3ccc4c(c3)C(=O)C(C(=O)[C@H]3CCCN3)C4=O)cc2C(=O)C1C(=O)[C@@H]1CCNC1 (stereo partly drawn) [Example 356, 5-({1,3-dioxo-2-[(3R)-pyrrolidine-3-carbonyl]-2,3-dihydro-1H-inden-5-yl}oxy)-2-[(2R)-pyrrolidine-2-carbonyl]-2,3-dihydro-1H-indene-1,3-dione] |
| 39% | 74% | 1.35 µM | CC(C)C[C@@H](N)C(=O)C1C(=O)c2ccc(Oc3ccc4c(c3)C(=O)C(C(=O)[C@H](N)CC(C)C)C4=O)cc2C1=O (stereo partly drawn) [Example 357, 2-[(2R)-2-amino-4-methylpentanoyl]-5-({2-[(2R)-2-amino-4-methylpentanoyl]-1,3-dioxo-2,3-dihydro-1H-inden-5-yl}oxy)-2,3-dihydro-1H-indene-1,3-dione] |
| 24% | 46% | – | O=C(NCC1CCS(=O)(=O)C1)C1C(=O)c2ccc(S(=O)(=O)c3ccc4c(c3)C(=O)C(C(=O)NCC3CCS(=O)(=O)C3)C4=O)cc2C1=O (stereo not drawn) [Example 358, N-[(1,1-dioxo-1λ^6-thiolan-3-yl)methyl]-5-[(2-{[(1,1-dioxo-1λ^6-thiolan-3-yl)methyl]carbamoyl}-1,3-dioxo-2,3-dihydro-1H-inden-5-yl)sulfonyl]-1,3-dioxo-2,3-dihydro-1H-indene-2-carboxamide] |
| 34% | 45% | – | O=C(c1ccc2c(c1)C(=O)C(C(=O)NCC1CCS(=O)(=O)C1)C2=O)c1ccc2c(c1)C(=O)C(C(=O)NCC1CCS(=O)(=O)C1)C2=O (stereo not drawn) [Example 359, N-[(1,1-dioxo-1λ^6-thiolan-3-yl)methyl]-5-(2-{[(1,1-dioxo-1λ^6-thiolan-3-yl)methyl]carbamoyl}-1,3-dioxo-2,3-dihydro-1H-indene-5-carbonyl)-1,3-dioxo-2,3-dihydro-1H-indene-2-carboxamide] |
| 23% | 59% | – | O=C(NC1CCS(=O)(=O)C1)C1C(=O)c2ccc(S(=O)(=O)c3ccc4c(c3)C(=O)C(C(=O)NC3CCS(=O)(=O)C3)C4=O)cc2C1=O (stereo not drawn) [Example 360, N-(1,1-dioxo-1λ^6-thiolan-3-yl)-5-({2-[(1,1-dioxo-1λ^6-thiolan-3-yl)carbamoyl]-1,3-dioxo-2,3-dihydro-1H-inden-5-yl}sulfonyl)-1,3-dioxo-2,3-dihydro-1H-indene-2-carboxamide] |
| 9% | 34% | – | O=C(c1ccc2c(c1)C(=O)C(C(=O)NC1CCS(=O)(=O)C1)C2=O)c1ccc2c(c1)C(=O)C(C(=O)NC1CCS(=O)(=O)C1)C2=O (stereo not drawn) [Example 361, N-(1,1-dioxo-1λ^6-thiolan-3-yl)-5-{2-[(1,1-dioxo-1λ^6-thiolan-3-yl)carbamoyl]-1,3-dioxo-2,3-dihydro-1H-indene-5-carbonyl}-1,3-dioxo-2,3-dihydro-1H-indene-2-carboxamide] |
| 33% | 53% | – | O=C(NCC1CCOC1)C1C(=O)c2ccc(S(=O)(=O)c3ccc4c(c3)C(=O)C(C(=O)NCC3CCOC3)C4=O)cc2C1=O (stereo not drawn) [Example 362, 5-[(1,3-dioxo-2-{[(oxolan-3-yl)methyl]carbamoyl}-2,3-dihydro-1H-inden-5-yl)sulfonyl]-1,3-dioxo-N-[(oxolan-3-yl)methyl]-2,3-dihydro-1H-indene-2-carboxamide] |
| 29% | 63% | 3.96 µM | O=C(c1ccc2c(c1)C(=O)C(C(=O)NCC1CCOC1)C2=O)c1ccc2c(c1)C(=O)C(C(=O)NCC1CCOC1)C2=O (stereo not drawn) [Example 363, 5-(1,3-dioxo-2-{[(oxolan-3-yl)methyl]carbamoyl}-2,3-dihydro-1H-indene-5-carbonyl)-1,3-dioxo-N-[(oxolan-3-yl)methyl]-2,3-dihydro-1H-indene-2-carboxamide] |
| 13% | 74% | 1.35 µM | CS(=O)(=O)N1CCC(NC(=O)C2C(=O)c3ccc(S(=O)(=O)c4ccc5c(c4)C(=O)C(C(=O)NC4CCN(S(C)(=O)=O)CC4)C5=O)cc3C2=O)CC1 (stereo not drawn) [Example 364, N-(1-methanesulfonylpiperidin-4-yl)-5-({2-[(1-methanesulfonylpiperidin-4-yl)carbamoyl]-1,3-dioxo-2,3-dihydro-1H-inden-5-yl}sulfonyl)-1,3-dioxo-2,3-dihydro-1H-indene-2-carboxamide] |
| 27% | 63% | 3.39 µM | CS(=O)(=O)N1CCC(NC(=O)C2C(=O)c3ccc(C(=O)c4ccc5c(c4)C(=O)C(C(=O)NC4CCN(S(C)(=O)=O)CC4)C5=O)cc3C2=O)CC1 (stereo not drawn) [Example 365, N-(1-methanesulfonylpiperidin-4-yl)-5-{2-[(1-methanesulfonylpiperidin-4-yl)carbamoyl]-1,3-dioxo-2,3-dihydro-1H-indene-5-carbonyl}-1,3-dioxo-2,3-dihydro-1H-indene-2-carboxamide] |
| 41% | 60% | 0.55 µM | O=C(NC1CCS(=O)(=O)C1)C1C(=O)c2ccc(Oc3ccc4c(c3)C(=O)C(C(=O)NC3CCS(=O)(=O)C3)C4=O)cc2C1=O (stereo not drawn) [Example 366, N-(1,1-dioxo-1λ^6-thiolan-3-yl)-5-({2-[(1,1-dioxo-1λ^6-thiolan-3-yl)carbamoyl]-1,3-dioxo-2,3-dihydro-1H-inden-5-yl}oxy)-1,3-dioxo-2,3-dihydro-1H-indene-2-carboxamide] |
| 30% | 77% | – | O=C(NCC1CCS(=O)(=O)C1)C1C(=O)c2ccc(Oc3ccc4c(c3)C(=O)C(C(=O)NCC3CCS(=O)(=O)C3)C4=O)cc2C1=O (stereo not drawn) [Example 367, N-[(1,1-dioxo-1λ^6-thiolan-3-yl)methyl]-5-[(2-{[(1,1-dioxo-1λ^6-thiolan-3-yl)methyl]carbamoyl}-1,3-dioxo-2,3-dihydro-1H-inden-5-yl)oxy]-1,3-dioxo-2,3-dihydro-1H-indene-2-carboxamide] |
| 1% | 45% | – | O=C(NC1CCOCC1)C1C(=O)c2ccc(S(=O)(=O)c3ccc4c(c3)C(=O)C(C(=O)NC3CCOCC3)C4=O)cc2C1=O (stereo not drawn) [Example 368, N-(oxan-4-yl)-5-({2-[(oxan-4-yl)carbamoyl]-1,3-dioxo-2,3-dihydro-1H-inden-5-yl}sulfonyl)-1,3-dioxo-2,3-dihydro-1H-indene-2-carboxamide] |
| 1% | 21% | – | CS(=O)(=O)N1CCC(NC(=O)C2C(=O)c3ccc(Oc4ccc5c(c4)C(=O)C(C(=O)NC4CCN(S(C)(=O)=O)CC4)C5=O)cc3C2=O)CC1 (stereo not drawn) [Example 369, N-(1-methanesulfonylpiperidin-4-yl)-5-({2-[(1-methanesulfonylpiperidin-4-yl)carbamoyl]-1,3-dioxo-2,3-dihydro-1H-inden-5-yl}oxy)-1,3-dioxo-2,3-dihydro-1H-indene-2-carboxamide] |
